Data reported in the supplement of paper PMC12137928.
Structures can show the parent of a compound that is named as a salt.

What was measured:
HCT116 [1] = details: 72 h
In short: (§1)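 Each well of the 1536-well plates received 250 HCT116 cells, which attached over 5 h. Luminescence was measured with CellTiter-Glo, scaled with vehicle as 0% and positive control as -100%, and pattern-corrected. A four-parameter Hill fit yielded IC50 and maximal efficacy.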

HCT116 [2] = test: efficacy (maximum % inhibition of viability vs DMSO); higher = more cytotoxic; details: 72 h
In short: as §1

Compound	IC50 cell viability (HCT116 [1]; ICRF193 0 nM)	IC50 cell viability (HCT116 [1]; ICRF193 200 nM)	efficacy (HCT116 [2]; ICRF193 0 nM)	efficacy (HCT116 [2]; ICRF193 200 nM)
Cc1c2oc3c(C)ccc(C(=O)N[C@@H]4C(=O)N[C@H](C(C)C)C(=O)N5CCC[C@H]5C(=O)N(C)CC(=O)N(C)[C@@H](C(C)C)C(=O)O[C@@H]4C)c3nc-2c(C(=O)N[C@@H]2C(=O)N[C@H](C(C)C)C(=O)N3CCC[C@H]3C(=O)N(C)CC(=O)N(C)[C@@H](C(C)C)C(=O)O[C@@H]2C)c(N)c1=O [Actinomycin D]	0.0164 µM	0.0206 µM	48.1%	79.3%
Cc1nnc2n1-c1sc(CCc3ccc(CC(C)C)cc3)cc1C(c1ccccc1Cl)=NC2C (stereo not given) [Israpafant]	16.4 µM	23.1 µM	98.7%	114%
S=c1nc[nH]c2nc[nH]c12 [6-mercaptopurine]	2.59 µM	3.26 µM	91.6%	83.2%
CC(C)(C)C(=O)OCOP(=O)(COCCn1cnc2c(N)ncnc21)OCOC(=O)C(C)(C)C [Adefovir dipivoxil]	14.6 µM	13 µM	63.1%	79.3%
O=c1c(C2CC(c3ccc(-c4ccc(Br)cc4)cc3)Cc3ccccc32)c(O)sc2ccccc12 (stereo not given) [Difethialone]	23.1 µM	18.3 µM	46.7%	68.3%
COc1cc(N2CCC(N3CCN(C)CC3)CC2)ccc1Nc1ncc(Cl)c(Nc2ccccc2P(C)(C)=O)n1 [Brigatinib]	20.6 µM	13 µM	82.6%	92.5%
N#Cc1c(N2C[C@@H]3NCCO[C@H]3C2)c(F)cc2c(=O)c(C(=O)O)cn(C3CC3)c12 [Finafloxacin]	> 45.8 µM	18.3 µM	–	72.2%
CCCCC[C@H](O)/C=C/[C@H]1[C@H](O)CC(=O)[C@@H]1C/C=C\CCCC(=O)O [Prostaglandin E2]	29.1 µM	23.1 µM	68.9%	84.7%
C/C(=C\c1csc(C)n1)[C@@H]1C[C@@H]2O[C@]2(C)CCC[C@H](C)[C@H](O)[C@@H](C)C(=O)C(C)(C)[C@@H](O)CC(=O)O1 [Epothilone B]	0.00517 µM	0.0073 µM	66%	45.8%
CC(C)c1c(C(=O)Nc2ccccc2)c(-c2ccccc2)c(-c2ccc(F)cc2)n1CC[C@@H](O)C[C@@H](O)CC(=O)O [Atorvastatin calcium]	18.3 µM	18.3 µM	60.2%	70.6%
Cc1[nH]c(/C=C2\C(=O)Nc3ccc(F)cc32)c(C)c1C(=O)NCCN1CCCC1 [Toceranib]	8.96 µM	8.96 µM	102%	94.9%
CCC[C@H](NC(=O)[C@@H]1[C@H]2CCC[C@H]2CN1C(=O)[C@@H](NC(=O)[C@@H](NC(=O)c1cnccn1)C1CCCCC1)C(C)(C)C)C(=O)C(=O)NC1CC1 [Telaprevir (VX-950)]	20.6 µM	29.1 µM	80.7%	74.5%
CO[C@H]1C[C@@H]2CC[C@@H](C)[C@@](O)(O2)C(=O)C(=O)N2CCCC[C@H]2C(=O)O[C@H]([C@H](C)C[C@@H]2CC[C@@H](O)[C@H](OC)C2)CC(=O)[C@H](C)/C=C(\C)[C@@H](O)[C@@H](OC)C(=O)[C@H](C)C[C@H](C)/C=C/C=C/C=C/1C [Sirolimus]	20.6 µM	29.1 µM	91.7%	88.6%
CN1CCN2c3ccccc3Cc3ccccc3C2C1 (stereo not given) [Mianserin]	23.1 µM	29.1 µM	51%	62%
CC(CN1c2ccccc2Sc2ccccc21)N(C)C (stereo not given) [Promethazine]	> 45.8 µM	29.1 µM	–	45.3%
Cc1cc(-n2c(=O)[nH]c(=O)n(C)c2=O)ccc1Oc1ccc(SC(F)(F)F)cc1 [TOLTRAZURIL]	> 45.8 µM	20.6 µM	–	41.6%
C[n+]1cc2c3c(ccc2c2ccc4cc5c(cc4c21)OCO5)OCO3 [Sanguinarine]	2.83 µM	2.53 µM	98.2%	91.6%
CNCC[C@H](Oc1cccc2ccccc12)c1cccs1 [Duloxetine hydrochloride]	18.3 µM	20.6 µM	93%	105%
COC1=CC(=O)C[C@@H](C)[C@]12Oc1c(Cl)c(OC)cc(OC)c1C2=O [Griseofulvin]	29.1 µM	20.6 µM	66.1%	65%
CCCC1CCCCN1 (racemic) [dl-Coniine]	> 45.8 µM	4.11 µM	–	66.1%
CNCCCN1c2ccccc2CCc2ccccc21 [Desipramine hydrochloride]	> 45.8 µM	18.3 µM	–	47.5%
C[C@H]1C[C@H]2[C@@H]3CCC4=CC(=O)C=C[C@]4(C)[C@@]3(Cl)[C@@H](O)C[C@]2(C)[C@@]1(O)C(=O)CO [Beclomethasone]	23.1 µM	20.6 µM	84.6%	86.6%
Oc1ccc(Cl)cc1Cc1cc(Cl)ccc1O [Dichlorophen]	10.3 µM	8.2 µM	106%	99.9%
CN(C)CC/C=C1/c2ccccc2Sc2ccc(Cl)cc21 [Chlorprothixene]	16.4 µM	25.9 µM	66.1%	68.9%
CN1CCN(CCCN2c3ccccc3Sc3ccc(C(F)(F)F)cc32)CC1 [Fluoperazine dihydrochloride]	18.3 µM	18.3 µM	92.3%	94.5%
CCN(CC)Cc1cc(Nc2ccnc3cc(Cl)ccc23)ccc1O [Amodiaquin dihydrochloride dihydrate]	18.3 µM	18.3 µM	85.2%	101%
O=C(c1ccc(F)c(F)c1Nc1ccc(I)cc1F)N1CC(O)([C@@H]2CCCCN2)C1 [Cobimetinib]	18.3 µM	9.2 µM	55.7%	75.9%
Cc1c(C(=O)NN2CCCCC2)nn(-c2ccc(Cl)cc2Cl)c1-c1ccc(Cl)cc1 [Rimonabant]	18.3 µM	29.1 µM	64.4%	87.3%

Compound	IC50 cell viability (HCT116 [1]; ICRF193 0 nM)	IC50 cell viability (HCT116 [1]; ICRF193 200 nM)	efficacy (HCT116 [2]; ICRF193 0 nM)	efficacy (HCT116 [2]; ICRF193 200 nM)
Cc1ccc(C(=O)c2cc(O)c(O)c([N+](=O)[O-])c2)cc1 [Tolcapone]	> 45.8 µM	29.1 µM	–	84.9%
CN(C)CCCN1c2ccccc2CCc2ccc(Cl)cc21 [Clomipramine hydrochloride]	18.3 µM	20.6 µM	74.9%	90.5%
CN1CCCN(C(c2ccccc2)c2ccc(Cl)cc2)CC1 (stereo not given) [Homochlorcyclizine]	20.6 µM	29.1 µM	71.7%	84.3%
COc1ccccc1OCCNCC(O)COc1cccc2[nH]c3ccccc3c12 (stereo not given) [Carvedilol tartrate]	20.6 µM	29.1 µM	96.8%	102%
O=C1c2ccccc2C(=O)c2c1ccc(O)c2O [Alizarin]	> 45.8 µM	29.1 µM	–	47.6%
CN(C)c1ccc(C(=C2C=CC(=[N+](C)C)C=C2)c2ccccc2)cc1 [Malachite green oxalate]	0.183 µM	0.231 µM	98.5%	96%
Oc1c(I)cc(I)c2cccnc12 [Iodoquinol]	13 µM	10.3 µM	84.8%	91.7%
CC1(S(=O)(=O)O)CC(=O)c2ccccc2C1=O (stereo not given) [Menadione sodium bisulfite]	18.3 µM	29.1 µM	102%	40.7%
C[n+]1c2cc(N)ccc2cc2ccc(N)cc21.Nc1ccc2cc3ccc(N)cc3nc2c1 [Acriflavine hydrochloride]	16.4 µM	23.1 µM	50.4%	56.5%
CNC(=O)c1cc(Oc2ccc(NC(=O)Nc3ccc(Cl)c(C(F)(F)F)c3)cc2)ccn1 [Sorafenib]	20.6 µM	29.1 µM	113%	52.1%
CC[C@@]1(O)C(=O)OCc2c1cc1n(c2=O)Cc2cc3c([N+](=O)[O-])cccc3nc2-1 [Rubitecan]	0.447 µM	0.0891 µM	81.2%	96.5%
C[C@H]1O[C@@H](O[C@H]2[C@@H](O)C[C@H](O[C@H]3[C@@H](O)C[C@H](O[C@H]4CC[C@@]5(C)[C@H](CC[C@@H]6[C@@H]5C[C@@H](O)[C@]5(C)[C@@H](C7=CC(=O)OC7)CC[C@]65O)C4)O[C@@H]3C)O[C@@H]2C)C[C@H](O)[C@@H]1O [Digoxin]	0.183 µM	0.146 µM	76.2%	83.8%
CNCCCC1c2ccccc2C=Cc2ccccc21 [Protriptyline hydrochloride]	29.1 µM	29.1 µM	68.2%	95.4%
CC(=O)[O][Hg][c]1ccccc1 [Phenylmercuric acetate]	4.61 µM	5.17 µM	106%	97.9%
CCCCCCCCCCCCCCCC[N+](C)(C)CCN(Cc1ccc(OC)cc1)c1ncccn1 [Thonzonium bromide]	18.3 µM	4.61 µM	120%	89.7%
CC[C@H](c1ccc(O)cc1)[C@@H](CC)c1ccc(O)cc1 [Hexestrol]	16.4 µM	20.6 µM	69.4%	64.6%
Nc1ncn([C@@H]2O[C@H](CO)[C@@H](O)[C@H]2O)c(=O)n1 [5-Azacitidine]	8.2 µM	8.2 µM	121%	98.6%
C#C[C@]1(OC(C)=O)CC[C@H]2[C@@H]3CCC4=C[C@@H](OC(C)=O)CC[C@@H]4[C@H]3CC[C@@]21C [Ethynodiol diacetate]	> 45.8 µM	23.1 µM	–	47.1%
COc1ccc2cc1Oc1ccc(cc1)C[C@H]1c3c(cc4c(c3Oc3cc5c(cc3OC)CCN(C)[C@@H]5C2)OCO4)CCN1C [Cepharanthine]	> 45.8 µM	4.61 µM	–	41.2%
CCCCCCCCCCCC[n+]1ccc2ccccc2c1 [2-Dodecylisoquinolinium tosylate]	7.3 µM	4.61 µM	101%	103%
CO/N=C1\C[C@]2(C[C@@H]3C[C@@H](C/C=C(\C)C[C@@H](C)/C=C/C=C4\CO[C@@H]5[C@H](O)C(C)=C[C@@H](C(=O)O3)[C@]45O)O2)O[C@H](/C(C)=C/C(C)C)[C@H]1C [Moxidectin]	20.6 µM	16.4 µM	128%	111%
COC(=O)C1=C(C)NC(C)=C(C(=O)OCCN(C)Cc2ccccc2)C1c1cccc([N+](=O)[O-])c1 (stereo not given) [Nicardipine]	23.1 µM	20.6 µM	61.1%	69.1%
CCN1CCN(Cc2ccc(Nc3ncc(F)c(-c4cc(F)c5nc(C)n(C(C)C)c5c4)n3)nc2)CC1 [Abemaciclib]	16.4 µM	18.3 µM	116%	112%
C=C1CC[C@H](O)C/C1=C/C=C1\CCC[C@]2(C)[C@@H]([C@H](C)/C=C/[C@H](C)C(C)C)CC[C@@H]12 [ERGOCALCIFEROL]	> 45.8 µM	29.1 µM	–	56.2%
CC(=O)O[C@H]1C(=O)[C@@]2(C)[C@H]([C@H](OC(=O)c3ccccc3)[C@]3(O)C[C@H](OC(=O)[C@H](O)[C@@H](NC(=O)c4ccccc4)c4ccccc4)C(C)=C1C3(C)C)[C@]1(OC(C)=O)CO[C@@H]1C[C@@H]2O [Paclitaxel]	0.0058 µM	0.00461 µM	71.1%	61.8%
CCCCCOc1ccccc1/C(=C\SC)n1ccnc1 [Neticonazole]	16.4 µM	16.4 µM	48.1%	51.1%
CCN(CC)CCOc1ccc(C(=C(Cl)c2ccccc2)c2ccccc2)cc1 [Clomifene citrate]	18.3 µM	20.6 µM	110%	120%
